# Assay results from US3982931A, “N,N-di-sec.butyl-benzamide herbicides” (priority 1967, dated 1976).
# Tests used:
# [1] = system: triticum vulgare L. (wheat); test: activity on agrarian species, soil treatment one day after sowing; format: in vivo
# Text: The infesting species and the agrarian species have been indicated in Table 1 by letters, as follows:
# N = triticum vulgare L. (wheat)
# Method of evaluation of the results (of tests):
# 0 = no activity and no difference with respect to the control;
# 1 slight differences with respect to the control;
# 3 = considerable activity with damages that definitely impair the further development of most of the small plants; an activity degree already useful for practical purposes;
# 4 = maximum of activity with lack of germination or total containment of the small plants in the emerging stage.
# In the case of an intermediate activity between two classes of the scale, both values are recorded with the one which corresponds to the preeminent activity preceding.
# TABLE 2 reports the activity data of other compounds that fall within the class which is the object of this invention.
# TABLE 3 reports data on the herbicidal activity against infesting herbs, while TABLE 4 reports data concerning the activity on useful species of agricultural cultivations. These tables employ the criterion explained previously. The product was spread on the soil one day after sowing, in quantities of 1, 3, 6, 8, 10, 12 and 14 kg/ha.
# [2] = system: amaranthus retroflexus L.; test: herbicidal activity, soil treatment one day after sowing; format: in vivo
# [3] = system: vicia sativa L.; test: as above; format: in vivo
# Method in brief: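 Pre-emergence soil treatment one day after sowing; activity scored visually on a […] scale against untreated control, from slight difference (1) to no germination or total containment at emergence (4); intermediate activity recorded as both classes, preeminent value first.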
# [4] = system: echinocloa crus-galli R.S.; test: as above; format: in vivo
# [5] = system: useful plants; test: phytotoxic action on useful plants (general statements); format: in vivo, useful gramineae; settings: in words
# Text: (§1) It is understood that all the data given herein shall have no limiting character on the object of this invention.
# [6] = system: oryza sativa L. (rice); test: activity on agrarian species, soil treatment one day after sowing; format: in vivo
# Method in brief: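 Pre-emergence soil treatment of rice applied one day after sowing at 1, 3, 6, 8, 10, 12 and 14 kg/ha. Crop injury scored against untreated control on a 0–4 scale, 4 being no germination or total containment at emergence; intermediate activity recorded as both adjacent classes.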
# [7] = system: setaria glauca L.; test: herbicidal activity, soil treatment one day after sowing; format: in vivo
# [8] = system: chenopodium album L.; test: as above; format: in vivo
# [9] = system: zea mais L. (corn); test: activity on agrarian species, soil treatment one day after sowing; format: in vivo
# Method in brief: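 Pre-emergence soil application one day after sowing at 1, 3, 6, 8, 10, 12 and 14 kg/ha. Crop damage scored visually against untreated control on a 0–4 scale (0 = no effect, 4 = no germination or total containment at emergence); intermediate effects recorded with both scores.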
# [10] = system: artemisia vulgaris L.; test: herbicidal activity, soil treatment one day after sowing; format: in vivo
# [11] = system: infesting gramineae; test: herbicidal action on infesting plants (general statements); format: in vivo; settings: in words
# Text: as §1
# [12] = system: Echinocloa crus-galli; test: Example 2 basin test, rice-field soil, granular composition; format: in vivo; settings: 4 - 6 - 8 kg/ha
# Protocol: (§2) Into 2 sq.m. basins containing rice-field soil were sown rice and Echinocloa crus-galli. After having submerged the soil with 10 cm of water, treatments were carried out by distributing uniformly on the soil a granular composition containing 5% of PA 300 and 95% of bentonite in doses equal to 0 - 4 - 6 - 8 kg of active principle per hectar.
# [13] = system: rice; test: as above; format: in vivo; settings: 4 - 6 - 8 kg/ha
# Protocol: as §2
# [14] = system: pisum sativum L. (pea); test: activity on agrarian species, soil treatment one day after sowing; format: in vivo
# [15] = system: avena sativa (oats); test: as above; format: in vivo, Avena sativa L.
# [16] = system: phaseolus vulgaris (bean); test: as above; format: in vivo, Phaseolus vulgaris L.
# Method in brief: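 Product applied to soil one day after sowing at 1, 3, 6, 8, 10, 12 and 14 kg/ha. Effect on bean plants scored against control on a 0–4 scale, 4 meaning no germination or total containment at emergence; intermediate activity recorded with both values.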
compound,measurement,setting,value
"CCN(CC)C(=O)c1cc(Cl)cc(Cl)c1 [PA291, 3,5-dichloro-N,N-diethyl-benzamide, reference compound]","activity on N, 0-4 scale",[1]; in vivo,4
same,"activity on A, 0-4 scale",[2]; 2 kg/ha,2-3
same,"activity on A, 0-4 scale",[2]; 4 kg/ha,3
same,"activity on A, 0-4 scale",[2]; 6 kg/ha,3-4
same,"activity on F, 0-4 scale",[3]; 2 kg/ha,2-3
same,"activity on F, 0-4 scale",[3]; 4 kg/ha,3
same,"activity on F, 0-4 scale",[3]; 6 kg/ha,3-4
same,"activity on D, 0-4 scale",[4]; 2 kg/ha,1-2
same,"activity on D, 0-4 scale",[4]; 4 kg/ha,2-3
same,"activity on D, 0-4 scale",[4]; 6 kg/ha,4
same,phytotoxic action on useful plants,[5],phytotoxic action of considerable intensity
same,"activity on P, 0-4 scale",[6]; in vivo,4
same,"activity on E, 0-4 scale",[7]; 2 kg/ha,2-3
same,"activity on E, 0-4 scale",[7]; 4 kg/ha,3
same,"activity on E, 0-4 scale",[7]; 6 kg/ha,4
same,"activity on C, 0-4 scale",[8]; 2 kg/ha,2-3
same,"activity on C, 0-4 scale",[8]; 4 kg/ha,3
same,"activity on C, 0-4 scale",[8]; 6 kg/ha,3
same,"activity on O, 0-4 scale",[9]; in vivo,4
same,"activity on B, 0-4 scale",[10]; 2 kg/ha,3
same,"activity on B, 0-4 scale",[10]; 4 kg/ha,3-4
same,"activity on B, 0-4 scale",[10]; 6 kg/ha,4
same,herbicidal action,[11],very active
"CCC(C)N(C(=O)c1cc(Cl)cc(Cl)c1Cl)C(C)CC (stereo not shown) [PA300, 2,3,5-trichloro-N,N-di-sec.butyl-benzamide]","activity on N, 0-4 scale",[1]; 3 kg/ha,0
same,"activity on N, 0-4 scale",[1]; 6 kg/ha,0
same,"activity on A, 0-4 scale",[2]; 1 kg/ha,0-1
same,"activity on A, 0-4 scale",[2]; 2 kg/ha,1
same,"activity on A, 0-4 scale",[2]; 4 kg/ha,1
same,"activity on A, 0-4 scale",[2]; 6 kg/ha,1
same,"activity on F, 0-4 scale",[3]; 1 kg/ha,0
same,"activity on F, 0-4 scale",[3]; 2 kg/ha,0
same,"activity on F, 0-4 scale",[3]; 4 kg/ha,0
same,"activity on F, 0-4 scale",[3]; 6 kg/ha,0
same,"activity on D, 0-4 scale",[4]; 1 kg/ha,3
same,"activity on D, 0-4 scale",[4]; 2 kg/ha,3-4
same,"activity on D, 0-4 scale",[4]; 4 kg/ha,4-3
same,"activity on D, 0-4 scale",[4]; 6 kg/ha,4
same,"activity on P, 0-4 scale",[6]; 3 kg/ha,0
same,"activity on P, 0-4 scale",[6]; 6 kg/ha,0
same,development of Echinocloa crus-galli plants,[12],no Echinocloa crus-galli plant developed
same,development of rice,[13],the rice developed regularly
same,"activity on E, 0-4 scale",[7]; 1 kg/ha,3-4
same,"activity on E, 0-4 scale",[7]; 2 kg/ha,4-3
same,"activity on E, 0-4 scale",[7]; 4 kg/ha,4
same,"activity on E, 0-4 scale",[7]; 6 kg/ha,4
same,"activity on C, 0-4 scale",[8]; 1 kg/ha,0-1
same,"activity on C, 0-4 scale",[8]; 2 kg/ha,1
same,"activity on C, 0-4 scale",[8]; 4 kg/ha,1-2
same,"activity on C, 0-4 scale",[8]; 6 kg/ha,1-2
same,"activity on O, 0-4 scale",[9]; 3 kg/ha,0
same,"activity on O, 0-4 scale",[9]; 6 kg/ha,0
same,"activity on L, 0-4 scale",[14]; 3 kg/ha,0
same,"activity on L, 0-4 scale",[14]; 6 kg/ha,0
same,"activity on G, 0-4 scale",[15]; 3 kg/ha,0
same,"activity on G, 0-4 scale",[15]; 6 kg/ha,1
same,"activity on I, 0-4 scale",[16]; 3 kg/ha,0
same,"activity on I, 0-4 scale",[16]; 6 kg/ha,0
same,"activity on B, 0-4 scale",[10]; 1 kg/ha,0-1
same,"activity on B, 0-4 scale",[10]; 2 kg/ha,1-0
same,"activity on B, 0-4 scale",[10]; 4 kg/ha,1
same,"activity on B, 0-4 scale",[10]; 6 kg/ha,1
